Source: ChEMBL document CHEMBL5244273, “Tuberculosis: An Overview of the Immunogenic Response, Disease Progression, and Medicinal Chemistry Efforts in the Last Decade toward the Development of Potential Drugs for Extensively Drug-Resistant Tuberculosis Strains” (J Med Chem, 2021)
Converted amounts (≈) assume the structure as drawn.

How the values were obtained:
[1] = test system: Mycobacterium tuberculosis; assay: Antitubercular activity against Mycobacterium tuberculosis XDR-FJ05195 assessed as inhibition of bacterial growth by microplate alamar blue assay; type: functional
[2] = test system: Staphylococcus epidermidis; assay: Antibacterial activity against Staphylococcus epidermidis; type: functional
[3] = test system: Mycobacterium tuberculosis; assay: Antitubercular activity against Mycobacterium tuberculosis MDR-FJ05120 assessed as inhibition of bacterial growth by microplate alamar blue assay; type: functional
[4] = test system: Mycobacterium tuberculosis; assay: Antitubercular activity against Mycobacterium tuberculosis STB-FJ05349 assessed as inhibition of bacterial growth by microplate alamar blue assay; type: functional
[5] = test system: Mycobacterium tuberculosis; assay: Antitubercular activity against Mycobacterium tuberculosis H37Rv ATCC 27294 assessed as inhibition of bacterial growth by microplate alamar blue assay; type: functional
Escherichia coli = assay: Antibacterial activity against ESBL negative Escherichia coli ATCC 25922; type: functional
[6] = test system: Mycobacterium tuberculosis; assay: Antitubercular activity against Mycobacterium tuberculosis MDR-FJ05189 assessed as inhibition of bacterial growth by microplate alamar blue assay; type: functional
[7] = test system: Mycobacterium tuberculosis; assay: Antitubercular activity against Mycobacterium tuberculosis STB-FJ05060 assessed as inhibition of bacterial growth by microplate alamar blue assay; type: functional
Staphylococcus aureus = assay: Antibacterial activity against methicillin susceptible Staphylococcus aureus ATCC 29213; type: functional
[8] = test system: Mycobacterium tuberculosis; assay: Antimycobacterial activity against Mycobacterium tuberculosis H37Rv; type: functional
[9] = (§1) Cytotoxicity against African green monkey Vero cells; type: toxicity, cell-based, Chlorocebus sabaeus; conditions: African green monkey, Vero cells
[10] = Cytotoxicity against African green monkey Vero cells assessed as inhibition of cell growth incubated for 72 hrs by MTT assay; type: toxicity, cell-based, Chlorocebus sabaeus
[11] = test system: Mycobacterium tuberculosis; assay: Antimycobacterial activity against Mycobacterium tuberculosis H37Rv assessed as inhibition of bacterial growth incubated for 5 days by alamar blue assay; type: functional; conditions: 120 h, time 5 day
Vero = assay: as §1; type: toxicity, cell-based, Chlorocebus sabaeus; conditions: chlorocebus sabaeus, vero
[12] = test system: Mycobacterium tuberculosis; assay: Antitubercular activity against Mycobacterium tuberculosis H37Rv by resazurin microtitre assay; type: functional
[13] = test system: Mycobacterium tuberculosis; assay: Antimycobacterial activity against Mycobacterium tuberculosis H37Rv incubated for 4 weeks; type: functional; conditions: 672 h
[14] = test system: Mycobacterium tuberculosis; assay: Antimycobacterial activity against Mycobacterium tuberculosis H37Rv incubated for 3 weeks; type: functional; conditions: 504 h
[15] = test system: Mycobacterium tuberculosis; assay: Antimycobacterial activity against Mycobacterium tuberculosis H37Rv incubated for 2 weeks; type: functional; conditions: 336 h
[16] = test system: Mycobacterium tuberculosis; assay: Antimycobacterial activity against Mycobacterium tuberculosis H37Rv incubated for 5 weeks; type: functional; conditions: 840 h
[17] = test system: Mycobacterium tuberculosis; assay: Antitubercular activity against active stage of Mycobacterium tuberculosis H37Ra; type: functional
[18] = test system: Mycobacterium tuberculosis; assay: Antitubercular activity against dormant stage of Mycobacterium tuberculosis H37Ra; type: functional
[19] = test system: Mycobacterium tuberculosis; assay: Antimycobacterial activity against Mycobacterium tuberculosis H37Rv […]; type: functional

O=C(Nc1nc(-c2ccccn2)cs1)c1ccc(Cl)s1
MIC [1]: 0.25 µg/mL (≈ 0.777 µM) | MIC [2]: 32 µg/mL (≈ 99.4 µM) | MIC [3]: 0.25 µg/mL (≈ 0.777 µM) | MIC [4]: 0.08 µg/mL (≈ 0.249 µM) | MIC [5]: 0.08 µg/mL (≈ 0.249 µM) | MIC (Escherichia coli): 256 µg/mL (≈ 795 µM) | MIC [6]: 4 µg/mL (≈ 12.4 µM) | MIC [7]: 0.08 µg/mL (≈ 0.249 µM) | MIC (Staphylococcus aureus): 32 µg/mL (≈ 99.4 µM)

CC(=O)N1N=C(c2ccc3oc(-c4ccc(O)cc4)nc3c2)CC1c1cccs1 (stereo not given)
MIC [8]: 0.8 µg/mL (≈ 1.98 µM) | IC50 [9]: 32.5 µg/mL (≈ 80.6 µM)

Cc1cc(O)n2nc(Nc3ccc(Cl)c(Cl)c3)c(C(N)=O)c2n1
IC50 at 72 h [10]: 29 µg/mL (≈ 82.4 µM) | MIC [11]: 6.25 µg/mL (≈ 17.7 µM)

CC(=O)N1N=C(c2ccc3oc(NC(=O)CCl)nc3c2)CC1c1cccs1 (stereo not given)
MIC [8]: 6.25 µg/mL (≈ 15.5 µM) | IC50 [9]: > 62.5 µg/mL

Cc1ccc(NC(=O)c2c(Nc3ccc(Cl)cc3)nn3c(O)cc(C)nc23)cc1
IC50 at 72 h [10]: 21 µg/mL (≈ 51.5 µM) | MIC [11]: 3.12 µg/mL (≈ 7.65 µM)

COc1ccccc1NC(=O)c1c(Nc2cccc(C)c2)nn2c(O)cc(C)nc12
IC50 at 72 h [10]: 21.3 µg/mL (≈ 52.7 µM) | MIC [11]: 3.12 µg/mL (≈ 7.73 µM)

Cc1cc(O)n2nc(Nc3ccc(F)c(F)c3)c(C(=O)Nc3ccc(F)cc3)c2n1
IC50 at 72 h [10]: 13.6 µg/mL (≈ 32.8 µM) | MIC [11]: 0.8 µg/mL (≈ 1.94 µM)

COc1cccc(C(=O)Nc2nc3cc(C4=NN(C(C)=O)C(c5cccs5)C4)ccc3o2)c1 (stereo not given)
MIC [8]: 1.6 µg/mL (≈ 3.47 µM) | IC5 (Vero): > 62.5 µg/mL

NNC(=O)c1ccncc1 [ISONIAZID]
MIC [1]: > 256 µg/mL | MIC [12]: 0.19 µg/mL (≈ 1.39 µM) | MIC [8]: 0.5 µg/mL (≈ 3.65 µM) | MIC [3]: 4 µg/mL (≈ 29.2 µM) | MIC [4]: < 0.5 µg/mL | MIC [5]: 0.125 µg/mL (≈ 0.911 µM) | MIC [6]: < 0.5 µg/mL | MIC [7]: < 0.5 µg/mL | MIC [11]: 0.5 µg/mL (≈ 3.65 µM)

C[C@H]1COc2c(N3CCN(C)CC3)c(F)cc3c(=O)c(C(=O)O)cn1c23.C[C@H]1COc2c(N3CCN(C)CC3)c(F)cc3c(=O)c(C(=O)O)cn1c23.O [LEVOFLOXACIN]
MIC [13]: 0.25 µg/mL | MIC [2]: 0.25 µg/mL | MIC [14]: 0.25 µg/mL | MIC [15]: 0.25 µg/mL | MIC (Staphylococcus aureus): 0.25 µg/mL | MIC [16]: 0.25 µg/mL

CO[C@H]1/C=C/O[C@@]2(C)Oc3c(C)c(O)c4c(O)c(c(/C=N/N5CCN(C)CC5)c(O)c4c3C2=O)NC(=O)/C(C)=C\C=C\[C@H](C)[C@H](O)[C@@H](C)[C@@H](O)[C@@H](C)[C@H](OC(C)=O)[C@@H]1C [RIFAMPIN]
MIC [1]: 4 µg/mL (≈ 4.86 µM) | MIC [12]: 0.049 µg/mL (≈ 0.0595 µM) | MIC90 [8]: 2.91 nM (≈ 2.39 ng/mL) | MIC99 [8]: 4.82 nM (≈ 3.97 ng/mL) | MIC [3]: > 256 µg/mL | MIC [4]: < 0.5 µg/mL | MIC [5]: 0.125 µg/mL (≈ 0.152 µM) | MIC [17]: 0.75 µg/mL (≈ 0.911 µM) | MIC [18]: 0.91 µg/mL (≈ 1.11 µM) | MIC [6]: > 256 µg/mL | MIC [7]: < 0.5 µg/mL | MIC [19]: 377 nM (≈ 310 ng/mL)
